Columns and labels:
Type in all cases: cell-based, human
HepG2 cells = experiment: LDL uptake assay (fluorescent DiI-LDL method); conditions: for LDL UPTAKE % STIMULATION: HepG2
Protocol: LDL uptake in HepG2 cells cultured in 12 well plates (Costar) at 2 X 10^5 per well was assayed by the fluorescent LDL method using a fluorescence microscope and video camera (SIT 66) attached to computer (Laser 25) with JAVA image analysis software (Jandel Scientific, CA) as previously reported (Grove, et al.,). […] Specifically, 2 ug/ml Dil-LDL in serum free media was added to HepG2 monolayers for two hours. The monolayers were washed 3 times to remove free Dil-LDL and fixed with 4% formalin in phosphate-buffered saline. Accumulated fluorescence was measured by quantitating the average intensity of 25 - 50 cells. Three difference fields in each of duplicate or triplicate monolayers were quantitated and averaged. The amount of LDL protein taken up was determined as follows. Unfixed cell monolayers were solubilized with 0.1% sodium dodecyl sulfate, transferred into glass tubes, and the lipids (and Dil) were extracted into chloroform using the Bligh-Dyer extraction procedure. Fluorescence in the chloroform layer was quantitated with a fluorescence spectrophotometer (Perkin-Elmer) and compared with a standard curve generated by extracting Dil from known quantities of Dil-LDL. Coomassie blue kits (Pierce) were used to estimate cell proteins.

diacylglycerol = experiment: Lipid analysis: diacylglycerol levels ([3H]-glycerol labelling, TLC); conditions: genistein
Protocol: Lipids from cells radiolabeled with [^32P]-orthophosphate or with (^3H]-glycerol were extracted by a modification of the method of Bligh and Dyer. Extracts, dried under a stream of nitrogen, were solublized with 100 ul of chloroform and spotted on thin-layer chromatography (TLC) plates (Silica Gel 60, Merck). The phospholipids were resolved either with a solvent system designed to separate the inositides (propanol: 4.3 M ammonium hydroxide, 65:35 v/v) or with a system designed to separate phosphatidylcholine and phosphatidylethanolamine (chloroform:methanol:acetic acid:water (50:35:8:1, v/v). Neutral lipids were resolved in a tank containing benzene:ethyl acetate (80:20, v/v). The radiolabeled phospholipids were identified as spots on autoradiographs which comigrated with authentic standards (detected with iodine vapors), were scraped into scintillation vials, and were quantitated in a scintillation counter. Neutral lipid standards (diacylglycerol and triacylglycerol) which were added to the [^3H)- glycerol labeled lipid extracts before chromatography were identified with iodine vapors, scraped into scintillation vials, and analyzed as outlined above.

[1] = tested on: tyrosine phosphorylation in HepG2 proteins; experiment: Phosphotyrosine proteins (antiphosphotyrosine immunoblot)
Protocol: HepG2 cells were plated into six well plates at 4 x 10^5 cells/well. After 48 hours (about 70% confluency), the cells were incubated with Oncostatin M or drugs for the indicated time, rapidly washed once with ice cold PBS, and lysed with 100ul of SDS-sample buffer containing 1 mM mercaptoethanol and 500 uM sodium vanadate. The bufer was rapidly mixed over the entire well before being removed and heated to 100° C for 15 minutes. The samples (25 ul) were separated by SDS-PAGE on 10-20% gradient gels and […] to Hybond C Extra membranes (Amersham). […] Proteins containing phosphotyrosine were detected using an affinity purified rabbit antiphosphotyrosine antibody followed by ['^251]-labeled protein A (ICN).

## O=c1c(-c2ccc(O)cc2)coc2cc(O)cc(O)c12 [Genistein]
HepG2 cells
  LDL UPTAKE % STIMULATION: -10%
HepG2 cells; genistein
  effect on Oncostatin M-induced elevations in LDLR activity: inhibited
diacylglycerol
  effect on Oncostatin M-induced elevations in diacylglycerol: inhibited
[1]; genistein 30 ug/ml, 30 minutes before Oncostatin M (100 ng/ml, 10 minutes)
  effect on Oncostatin M-induced tyrosine phosphorylation: mitigated

## CC1CNCCN1S(=O)(=O)c1cccc2cnccc12 (stereo not drawn) [H-7]
HepG2 cells; 10 ug/ml H-7 for 30 min, then 4 hours Oncostatin M (100 ng/ml)
  effect on increase in LDL uptake induced by Oncostatin M: prevented the increases in LDL uptake
HepG2 cells; 10 ug/ml H-7 for 30 min, then 4 hours PMA (10 nM)
  effect on increase in LDL uptake induced by PMA: prevented the increases in LDL uptake

## CCCCCCCCCCCCCC(=O)O[C@@H]1[C@@H](C)[C@@]2(O)[C@@H](C=C(CO)C[C@]3(O)C(=O)C(C)=C[C@@H]23)[C@@H]2C(C)(C)[C@]12OC(C)=O [PMA, phorbol 12-myristate 13-acetate]
HepG2 cells; PMA 10 nM, 4 hours, time dependency similar to Oncostatin M
  LDL uptake: induced LDL uptake
HepG2 cells; PMA 50 nM added to genistein-inhibited HepG2 cells
  effect on the inhibition of LDLR expression with genistein: reversed

## vanadate
HepG2 cells
  LDL UPTAKE % STIMULATION: 6%
HepG2 cells; vanadate with Oncostatin M
  effect on LDLR expression stimulation by Oncostatin M: synergistically enhance
[1]; HepG2, grades - to + + + + +, legend not given
  TYROSINE PHOSHORYLATION: + + +
[1]; vanadate with Oncostatin M
  effect on tyrosine kinase stimulation by Oncostatin M: synergistically enhance

Source: patent publication EP0485961A1, “Oncostatin M for stimulating LDL uptake and LDL receptor expression” (Bristol-Myers Squibb Company, priority 1990, dated 1992)
